Measurements published in patent US8729089B2 (Gilead Sciences, Inc., priority 2006, dated 2014).

Assays:
[1] = CC50 assay (CellTiter-Glo) in Huh-7 HCV replicon cells; assay type: cell-based, human; details: human, 3 days incubation, CellTiter-Glo readout
How it was run: (§1)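 Huh-7 cells carrying an HCV replicon (6000/well) exposed to 3-fold serial compound dilutions for 3 days at 37 °C, final DMSO 0.5% where used. EC50 read as replicon luciferase luminescence after cell lysis; CC50 from CellTiter-Glo luminescence after 10 min at room temperature.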

[2] = tested on: HCV replicon in human hepatoma Huh-7 cell line; test: Anti-HCV replicon assay (EC50, luciferase); assay type: cell-based; details: Hepatitis C virus, Huh-7, 72 h
How it was run: as §1

Row | SMILES | CC50 at 3 days [1] [µM] | EC50 [2] [µM]
1 | Fc1ccc(-c2ccc3nc(NCc4ccccn4)nc(NCC(F)(F)F)c3n2)cc1 [Example 243, 6-(4-Fluoro-phenyl)-N2-pyridin-2-ylmethyl-N4-(2,2,2-trifluoro-ethyl)-pyrido[3,2-d]pyrimidine-2,4-diamine] | 5 to 25 | < 0.1
2 | Fc1ccc(-c2ccc3nc(NCc4cccnc4)nc(NCC(F)(F)F)c3n2)cc1 [Example 244, 6-(4-Fluoro-phenyl)-N2-pyridin-3-ylmethyl-N4-(2,2,2-trifluoro-ethyl)-pyrido[3,2-d]pyrimidine-2,4-diamine] | 5 to 25 | < 0.1
3 | Fc1ccc(-c2ccc3nc(NCc4ccc(-c5csnn5)cc4)nc(NCC(F)(F)F)c3n2)cc1 [Example 245, 6-(4-Fluoro-phenyl)-N2-(4-[1,2,3]thiadiazol-4-yl-benzyl)-N4-(2,2,2-trifluoro-ethyl)-pyrido[3,2-d]pyrimidine-2,4-diamine] | > 25 | < 0.1
4 | NS(=O)(=O)c1ccc(CNc2nc(NCC(F)(F)F)c3nc(-c4ccc(F)cc4)ccc3n2)c(F)c1 [Example 246, 3-Fluoro-4-{[6-(4-fluoro-phenyl)-4-(2,2,2-trifluoro-ethylamino)-pyrido[3,2-d]pyrimidin-2-ylamino]-methyl}-benzenesulfonamide] | 5 to 25 | < 0.1
5 | Fc1ccc(-c2ccc3nc(NCc4nnco4)nc(NCC(F)(F)F)c3n2)cc1 [Example 247, 6-(4-Fluoro-phenyl)-N2-[1,3,4]oxadiazol-2-ylmethyl-N4-(2,2,2-trifluoro-ethyl)-pyrido[3,2-d]pyrimidine-2,4-diamine] | 5 to 25 | < 0.1
6 | Fc1ccc(-c2ccc3nc(NCc4cncs4)nc(NCC(F)(F)F)c3n2)cc1 [Example 248, 6-(4-Fluoro-phenyl)-N2-thiazol-5-ylmethyl-N4-(2,2,2-trifluoro-ethyl)-pyrido[3,2-d]pyrimidine-2,4-diamine] | 5 to 25 | < 0.1
7 | CC(Nc1nc(NCC(F)(F)F)c2nc(-c3ccc(F)cc3)ccc2n1)c1ccc(S(N)(=O)=O)cc1 (stereo not drawn) [Example 249, 4-{1-[6-(4-Fluoro-phenyl)-4-(2,2,2-trifluoro-ethylamino)-pyrido[3,2-d]pyrimidin-2-ylamino]-ethyl}-benzenesulfonamide] | < 5 | < 0.1
8 | Fc1ccc(-c2ccc3nc(NCc4ccc(-n5cncn5)cc4)nc(NCC(F)(F)F)c3n2)cc1 [Example 251, 6-(4-Fluoro-phenyl)-N2-(4-[1,2,4]triazol-1-yl-benzyl)-N4-(2,2,2-trifluoro-ethyl)-pyrido[3,2-d]pyrimidine-2,4-diamine] | > 25 | < 0.1
9 | COCCNc1nc(NCC(F)(F)F)c2nc(-c3ccc(F)cc3)ccc2n1 [Example 252, 6-(4-Fluoro-phenyl)-N2-(2-methoxy-ethyl)-N4-(2,2,2-trifluoro-ethyl)-pyrido[3,2-d]pyrimidine-2,4-diamine] | 5 to 25 | < 0.1
10 | Fc1ccc(-c2ccc3nc(NCc4ncco4)nc(NCC(F)(F)F)c3n2)cc1 [Example 253, 6-(4-Fluoro-phenyl)-N2-oxazol-2-ylmethyl-N4-(2,2,2-trifluoro-ethyl)-pyrido[3,2-d]pyrimidine-2,4-diamine] | < 5 | < 0.1
11 | Fc1ccc(-c2ccc3nc(NCCn4cncn4)nc(NCC(F)(F)F)c3n2)cc1 [Example 254, 6-(4-Fluoro-phenyl)-N2-(2-[1,2,4]triazol-1-yl-ethyl)-N4-(2,2,2-trifluoro-ethyl)-pyrido[3,2-d]pyrimidine-2,4-diamine] | > 25 | < 0.1
12 | CC(Nc1nc(NCC(F)(F)F)c2nc(-c3ccc(F)cc3)ccc2n1)c1ccc(-n2cncn2)cc1 (stereo not drawn) [Example 255, 6-(4-Fluoro-phenyl)-N2-[1-(4-[1,2,4]triazol-1-yl-phenyl)-ethyl]-N4-(2,2,2-trifluoro-ethyl)-pyrido[3,2-d]pyrimidine-2,4-diamine] | 5 to 25 | < 0.1
